Experimental data reported in PMC7870846, “Incorporation of sensing modalities into de novo designed fluorescence-activating proteins” (Nature Communications, 2021).
Marks after values point to notes of the source that are not given here.

How the values were obtained:
[1] = cited from earlier work
[2] = target: T1, mFAP2a; test: Fluorescence titration of DFHBI or DFHBI-1T into 20.0 nM purified protein in high-salt Tev cleavage buffer (25.0 mM Tris, 100 mM NaCl, pH 8.00), excitation 468 nm and emission 530 nm, means of eight technical replicates fit to a single-binding site isotherm.; details: n = 8
T1 construct: de novo designed beta-barrel; large-scale purification and SEC
Excerpt: (§1) Fig. 1 Characterization of brighter and chromophore-specific mFAPs. a Computational model of de novo designed β-barrel variant mFAP2b showing protein backbone (cartoon) and bound DFHBI chromophore (sticks). b, c Chemical structures of DFHBI and DFHBI-1T, respectively. d, e In vitro titration of d DFHBI or e DFHBI-1T with mFAP2 (gray), mFAP2b (lime), mFAP2a (violet), and mFAP10 (pink) proteins. Error bars represent s.d. of the mean of eight technical replicates. […] The images (left) are the pseudocolored normalized fluorescence intensity per pixel. Scale bars represent 10 microns. Imaging was independently repeated twice with similar results. The computational models (right) show the residues unique to mFAP2b (V13, M15) (lime sticks) or mFAP2a (A13, F15) (violet sticks). Intermolecular hydrogen bonds to the chromophore are shown as black dotted lines. […] Source data is available for Fig. 1f–i.
(§2) Fluorescence endpoints were measured on a Synergy Neo2 hybrid multi-mode reader (BioTek) in flat bottom, black polystyrene, non-binding surface 96-well microplates (Corning 3650). In measuring chromophore-binding affinities (Fig. 1d, e), mFAP2, mFAP2a, and mFAP2b, and mFAP10 were produced by large-scale protein purification and SEC purification. Proteins were aliquoted in eight technical replicates in 200 μL final volumes to 20.0 nM final concentration in ten serial dilutions ( 10 dilution factor) of DFHBI starting from 31.6 μM DFHBI or 31.6 μM DFHBI-1T final concentrations, including an eleventh condition without chromophore. Fluorescence was excited at λex = 468 nm and fluorescence emission measured at λem = 530 nm. Background fluorescence endpoints of wells with identical chromophore concentrations but purified protein replaced with an identical volume of high-salt Tev cleavage buffer were measured, and fluorescence endpoints subtracted from those measured with protein. Background-subtracted data were averaged and the means normalized from 0 to 1 and fit to a single-binding site isotherm function using non-linear least squares fitting to obtain a fitted Kd value (Table 1), and the fit scaled to the maximum mean value (Fig. 1d, e).

[3] = target: T2, mFAP2b; test: as above; details: n = 8
T2 construct: de novo designed beta-barrel; large-scale purification and SEC
Excerpt: as §1, §2

[4] = target: T3, mFAP10; test: as above; details: n = 8
T3 construct: de novo designed beta-barrel; large-scale purification and SEC
Excerpt: as §1, §2

[5] = target: T4, mFAP_pH; test: Fluorescence titration of DFHBI into 500 nM protein in Na2HPO4-citrate buffer with 143 mM NaCl at pH 7.34 (excitation 483 nm, emission 503 nm), fit to a single-binding site isotherm.; details: read-out: affinities (Kd values), phenolate form of DFHBI
T4 construct: de novo designed beta-barrel; large-scale protein purification
Experimental: (§3) In measuring the protonated (phenolic) and deprotonated (phenolate) DFHBI affinities with mFAP_pH (Supplementary Fig. 5c), fluorescence endpoints were measured on a Synergy Neo2 hybrid multi-mode reader (BioTek) in flat bottom, black polystyrene, non-binding surface 96-well microplates (Corning 3650). mFAP_pH was produced by large-scale protein purification[49] and aliquoted to 200 μL final volumes at 500 nM final concentration in seven serial dilutions ( 10 dilution factor) of DFHBI starting from 10.0 μM DFHBI final concentration, including an eighth condition without chromophore, in Na2HPO4-citrate buffer supplemented with 143 mM NaCl final concentration at either pH 3.61 or pH 7.34. For pH 3.61 fluorescence was excited at λex = 379 nm and fluorescence emission measured at λem = 498 nm, and for pH 7.34 fluorescence was excited at λex = 483 nm and fluorescence emission measured at λem = 503 nm. At each pH, background fluorescence endpoints of wells with identical chromophore concentrations but purified protein replaced with an identical volume of buffer were measured, and fluorescence endpoints subtracted from those measured with protein. Background-subtracted data were normalized from 0 to 1 and fit to a single-binding site isotherm function using non-linear least squares fitting to obtain the reported Kd values, which were less than the protein concentrations tested.

[6] = target: T4, mFAP_pH; test: Fluorescence titration of DFHBI into 500 nM protein in Na2HPO4-citrate buffer with 143 mM NaCl at pH 3.61 (excitation 379 nm, emission 498 nm), fit to a single-binding site isotherm.; details: read-out: affinities (Kd values), phenolic form of DFHBI
Experimental: as §3

[7] = system: SERCA pumps; test: Pharmacological inhibition of SERCA Ca2+ pumps in cardiomyocytes; assay type: cell-based, human; details: 20.0 µM final; 3.00 µM DFHBI
Experimental: Pharmacological inhibition of SERCA Ca^2+ pumps: Cardiomyocytes in 2.0 mL of Tyrode’s solution labeled with 3.00 µM DFHBI were imaged at 2 Hz for 30 min with an sCMOS camera (Photometrics Prime95B) and 20x magnification lens (Leica HCX PL FLUOTAR L 20x/0.40 NA CORR). A stock solution of 20.0 mM cyclopiazonic acid (CPA) (Tocris, 1235) in 100% anhydrous DMSO was prepared. Two milliliters of Tyrode’s solution containing 3.00 µM DFHBI and 40.0 µM CPA was administered at ~10 min from initial image acquisition to inhibit SERCA pumps and disrupt Ca^2+ recovery into the SR after contraction. Fluorescence fold-change over the whole field of view in each frame was calculated by Eq. (11), where F is the fluorescence per frame, and F0 is the fluorescence at the first frame (Supplementary Fig. 19c).

[8] = pH-dependent fluorescence assays (pH titration); assay type: biochemical; details: from pH 8.38 to pH 4.79
Experimental: In measuring pH-dependent fluorescence (Fig. 3d–i), Na2HPO4-citrate buffer supplemented with 150 mM NaCl at unique pH values were produced via mixing various volumes of 100 mM citric acid (Sigma Aldrich), 200 mM Na2HPO4 (Sigma Aldrich), and 2.00 M NaCl, and final pHs quantified via an Accumet AB15 Basic pH meter (Fisher Scientific). pHRed and pHluorin2 were produced via large-scale protein purification, 6xHis-tag removal and size-exclusion chromatography (SEC) purification, and mFAP_pH and mFAP2b were produced via large-scale protein purification and SEC purification. pH-dependent fluorescence was measured at […] final protein concentration for mFAP2b, mFAP_pH and pHRed, and 170 nM final concentration for pHluorin2, at each pH in technical triplicate in 200 μL final volumes per well. […] In measuring fluorescence excitation spectra at each pH (Fig. 3d), excitation wavelengths were set to the range λex = 300–530 nm and fluorescence emission measured at λem = 562 nm. In measuring pH-dependent fluorescence excitation spectra at pH 3.76 and pH 7.34 (Fig. 3f, g), excitation spectra were measured using excitation wavelengths in the range λex = 300–540 nm and emission wavelength λem = 592 nm. […]

For `CC1=N/C(=C\c2cc(F)c(O)c(F)c2)C(=O)N1C` [DFHBI, 3,5-difluoro-4-hydroxybenzylidene imidazolinone], which Absolute quantum yield [1] is on record?
Its Absolute quantum yield is 0.001^f.

And the Reported quantum yield [1]?
Its Reported quantum yield is 0.0007^e.

What about the pKa ([1]; free, unbound in solution) of the same molecule?
Its pKa is ~ 5.4.

For `CC1=N/C(=C\c2cc(F)c(O)c(F)c2)C(=O)N1CC(F)(F)F` [DFHBI-1T, (Z)-4-(3,5-difluoro-4-hydroxybenzylidene)-2-methyl-1-(2,2,2-trifluoroethyl)-1H-imidazol-5(4 H)-one], which Reported quantum yield [1] is on record?
The Reported quantum yield was 0.00098^e.

What does the source list for `CC1=N/C(=C\c2cc(F)c(O)c(F)c2)C(=O)N1CC(F)(F)F` [DFHBI-1T, (Z)-4-(3,5-difluoro-4-hydroxybenzylidene)-2-methyl-1-(2,2,2-trifluoroethyl)-1H-imidazol-5(4H)-one]?
Kd [2]: 5800 ± 860 nM; Kd [3]: 11000 ± 3100 nM; Kd [4]: 45 ± 6.5 nM

For `CC1=N/C(=C\c2cc(F)c(O)c(F)c2)C(=O)N1C` [DFHBI], which Kd [2] is on record?
The Kd was 150 ± 11 nM.

And the Kd [3]?
Its Kd is 1800 ± 250 nM.

And the Kd [4]?
The Kd was 17 ± 7.9 nM.

And the Kd [5]?
Its Kd is ~160 nM.

What about the Kd [6] of the same molecule?
The Kd was ~190 nM.

For `CC(=O)C1=C(O)[C@@H]2[C@H]3c4c[nH]c5cccc(c45)C[C@H]3C(C)(C)N2C1=O` [cyclopiazonic acid], which “effect on SR fluorescence of EF1n_mFAP2b sensor” value [7] is on record?
Its value is “sustained increase in fluorescence in the SR”.

For “pHRed: previously reported pH sensor protein [reference compound]”, which “fold-change in ratiometric fluorescence (Fratio)” value [8] is on record?
The value was ~ 34 fold.
